Several values for one entry are separate records, joined by “and”; a condition that tells them apart may be missing. Identical values can stand only once. Inconclusive results and toxic doses are left out.
Test system: L1210 leukemia ip in BDF1 mice, survival T/C
Experiment: NCI In Vivo Anticancer Drug Screen. Data for tumor model L1210 Leukemia (intraperitoneal) in B6D2F1 (BDF1) mice
Settings: endpoint: mean survival time, higher = longer survival
Method in brief: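 Transplanted-tumor mice were given test agent; controls received vehicle only. Survival readings from the two groups were divided (treated over control).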

[1] = dose: 50.0 mg/kg/injection, schedule: Q01DX001 (ip), vehicle: carboxymethylcellulose (CMC)
[2] = dose: 100.0 mg/kg/injection, schedule: Q01DX001 (ip), vehicle: carboxymethylcellulose (CMC)
[3] = dose: 200.0 mg/kg/injection, schedule: Q01DX001 (ip), vehicle: carboxymethylcellulose (CMC)
[4] = dose: 100.0 mg/kg/injection, schedule: Q01DX001 (ip), vehicle: Klucel (hydroxypropylcellulose) (HPC)
[5] = dose: 100.0 mg/kg/injection, schedule: Q04DX003 (ip), vehicle: Klucel (hydroxypropylcellulose) (HPC)
[6] = dose: 200.0 mg/kg/injection, schedule: Q01DX001 (ip), vehicle: Klucel (hydroxypropylcellulose) (HPC)
[7] = dose: 200.0 mg/kg/injection, schedule: Q04DX003 (ip), vehicle: Klucel (hydroxypropylcellulose) (HPC)
[8] = dose: 400.0 mg/kg/injection, schedule: Q01DX001 (ip), vehicle: Klucel (hydroxypropylcellulose) (HPC)
[9] = dose: 400.0 mg/kg/injection, schedule: Q04DX003 (ip), vehicle: Klucel (hydroxypropylcellulose) (HPC)
[10] = dose: 100.0 mg/kg/injection, schedule: Q01DX009 (ip), vehicle: saline with Tween-80
[11] = dose: 100.0 mg/kg/injection, schedule: Q04DX003 (ip), vehicle: saline with Tween-80
[12] = dose: 200.0 mg/kg/injection, schedule: Q01DX009 (ip), vehicle: saline with Tween-80
[13] = dose: 200.0 mg/kg/injection, schedule: Q04DX003 (ip), vehicle: saline with Tween-80
[14] = dose: 400.0 mg/kg/injection, schedule: Q01DX009 (ip), vehicle: saline with Tween-80
[15] = dose: 400.0 mg/kg/injection, schedule: Q04DX003 (ip), vehicle: saline with Tween-80
[16] = dose: 100.0 mg/kg/injection, schedule: Q01DX009 (ip), vehicle: Klucel (hydroxypropylcellulose) (HPC)
[17] = dose: 200.0 mg/kg/injection, schedule: Q01DX009 (ip), vehicle: Klucel (hydroxypropylcellulose) (HPC)
[18] = dose: 400.0 mg/kg/injection, schedule: Q01DX009 (ip), vehicle: Klucel (hydroxypropylcellulose) (HPC)
[19] = dose: 100.0 mg/kg/injection, schedule: Q04DX003 (ip), vehicle: saline
[20] = dose: 200.0 mg/kg/injection, schedule: Q04DX003 (ip), vehicle: saline
[21] = dose: 400.0 mg/kg/injection, schedule: Q04DX003 (ip), vehicle: saline
[22] = dose: 100.0 mg/kg/injection, schedule: Q01DX009 (ip), vehicle: saline
[23] = dose: 200.0 mg/kg/injection, schedule: Q01DX009 (ip), vehicle: saline
[24] = dose: 400.0 mg/kg/injection, schedule: Q01DX009 (ip), vehicle: saline
[25] = dose: 100.0 mg/kg/injection, schedule: Q04DX002 (ip), vehicle: Klucel (hydroxypropylcellulose) (HPC)
[26] = dose: 200.0 mg/kg/injection, schedule: Q04DX002 (ip), vehicle: Klucel (hydroxypropylcellulose) (HPC)
[27] = dose: 400.0 mg/kg/injection, schedule: Q04DX002 (ip), vehicle: Klucel (hydroxypropylcellulose) (HPC)

For `C[Si](C)(CCl)CCCO[Si](C)(C)CCl`, the T/C [1] was 102 % of control, the T/C [2] was 108 % of control and the T/C [3] was 96 % of control. The T/C (dose: 400.0 mg/kg/injection, schedule: Q01DX001 (ip), vehicle: carboxymethylcellulose (CMC)) was 98 % of control.

In the case of `Cc1c(O)ccc2c1OCC2=O`, the T/C [4] is reported as 91 % of control, the T/C [5] is reported as 104 % of control and the T/C [6] is reported as 94 % of control. The T/C [7] was 98 % of control, the T/C [8] was 98 % of control and the T/C [9] was 93 % of control.

With `CCOC(=O)S(=O)(=O)c1ccc(C)cc1` the T/C (dose: 100.0 mg/kg/injection, schedule: Q04DX003 (ip), vehicle: acetone) was 106 % of control, the T/C (dose: 200.0 mg/kg/injection, schedule: Q04DX003 (ip), vehicle: acetone) was 96 % of control and the T/C (dose: 400.0 mg/kg/injection, schedule: Q04DX003 (ip), vehicle: acetone) was 101 % of control.

For `c1ccc(Nc2ccc3ccccc3c2)cc1`, the T/C [10] was 97 % of control, the T/C [11] was 92 % of control and the T/C [12] was 89 % of control. The T/C [13] was 98 % of control, the T/C [14] was 92 % of control and the T/C [15] was 98 % of control.

For `O=C(CNS(=O)(=O)c1ccccc1)c1ccc(Cl)cc1Cl`, the T/C [16] was 94 % of control, the T/C [17] was 105 % of control and the T/C [18] was 95 % of control.

For `O=C(c1ccccc1)C(Br)S(=O)(=O)C(Br)C(=O)c1ccccc1` (stereo not given), the T/C [19] was 107 % of control, the T/C [20] was 107 % of control and the T/C [21] was 109 % of control.

With `COc1ccc(OC)c(NC(=O)OCC(Cl)(Cl)Cl)c1` the T/C [22] was 109 % of control, the T/C [23] was 104 % of control and the T/C [24] was 98 % of control.

For `CC(C)C(=O)Oc1ccc(-c2ccccc2)cc1`, the T/C [25] was 93 % of control, the T/C [26] was 100 % of control and the T/C [27] was 100 % of control.

With `CO[C@@]12[C@H](COC(N)=O)C3=C(C(=O)C(C)=C(NCCO)C3=O)N1C[C@@H]1N[C@@H]12` the T/C (dose: 2.9 mg/kg/injection, schedule: Q01DX001 (ip), vehicle: acetone) was 113 % of control, the T/C (dose: 4.3 mg/kg/injection, schedule: Q01DX001 (ip), vehicle: acetone) was 117 % of control and the T/C (dose: 6.6 mg/kg/injection, schedule: Q01DX001 (ip), vehicle: saline) was 113 % of control. The T/C (dose: 7.5 mg/kg/injection, schedule: Q01DX009 (ip), vehicle: saline) was 91 % of control, the T/C (dose: 9.9 mg/kg/injection, schedule: Q01DX001 (ip), vehicle: saline) was 111 % of control and the T/C (dose: 22.0 mg/kg/injection, schedule: Q01DX001 (ip), vehicle: saline) was 113 % of control. For the same compound, the T/C (dose: 33.0 mg/kg/injection, schedule: Q01DX001 (ip), vehicle: acetone) was 159 % of control.

With `Cc1ccc(C(=O)N/N=C/c2ccccc2O)cc1` the T/C [25] was 89 % of control, the T/C [26] was 92 % of control and the T/C [27] was 105 % of control.

`Cc1cccc(Nc2cc(=O)[nH]c(=O)[nH]2)c1C` was tested, and the T/C (dose: 150.0 mg/kg/injection, schedule: Q01DX001 (ip), vehicle: saline with Tween-80) was 90 % of control and the T/C (dose: 300.0 mg/kg/injection, schedule: Q01DX001 (ip), vehicle: saline with Tween-80) was 95 % of control.

For `O=C(Nc1cccc(C2=NCCCN2)c1)Nc1cc(C(=O)Nc2ccc(C3=NCCCN3)cc2)ccc1C(=O)Nc1ccc(C2=NCCCN2)cc1`, the T/C (dose: 0.47 mg/kg/injection, schedule: Q01DX Z (ip), vehicle: saline) was 103 % of control, the T/C (dose: 0.94 mg/kg/injection, schedule: Q01DX Z (ip), vehicle: saline) was 95 % of control and the T/C (dose: 1.88 mg/kg/injection, schedule: Q01DX Z (ip), vehicle: saline) was 104 % of control. For the same compound, the T/C (dose: 3.75 mg/kg/injection, schedule: Q01DX Z (ip), vehicle: saline) was 117 % of control and 265 % of control, the T/C (dose: 7.5 mg/kg/injection, schedule: Q01DX Z (oral), vehicle: saline) was 98 % of control and the T/C (dose: 15.0 mg/kg/injection, schedule: Q01DX Z (ip), vehicle: saline) was 96 % of control. For the same compound, the T/C (dose: 15.0 mg/kg/injection, schedule: Q01DX Z (oral), vehicle: saline) was 104 % of control, the T/C (dose: 30.0 mg/kg/injection, schedule: Q01DX Z (oral), vehicle: saline) was 104 % of control and the T/C (dose: 60.0 mg/kg/injection, schedule: Q01DX Z (oral), vehicle: saline) was 104 % of control.

With `CCCCCCCCCCN(CCCCCCCCCC)C(C)C(=O)c1ccc2cc(Br)c3ccccc3c2c1` (stereo not given) the T/C (dose: 55.0 mg/kg/injection, schedule: Q01DX Z (ip), vehicle: methylcellulose (MC)) was 93 % of control, the T/C (dose: 83.0 mg/kg/injection, schedule: Q01DX Z (ip), vehicle: methylcellulose (MC)) was 100 % of control and the T/C (dose: 125.0 mg/kg/injection, schedule: Q01DX Z (ip), vehicle: methylcellulose (MC)) was 93 % of control.

In the case of `CCCCCCCCCCCCCCCCCOC(=O)CCCCCCCCCCCCC`, the T/C [16] is reported as 91 % of control, the T/C [11] is reported as 90 % of control and the T/C [17] is reported as 96 % of control. The T/C [13] was 88 % of control, the T/C [18] was 98 % of control and the T/C [15] was 92 % of control.

In the case of `CC(C)(C)C(=O)[CH-]C(=O)C(C)(C)C.CC(C)(C)C(=O)[CH-]C(=O)C(C)(C)C.CC(C)(C)C(=O)[CH-]C(=O)C(C)(C)C.CS(C)=O.[Er+3]`, the T/C [4] is reported as 98 % of control, the T/C [5] is reported as 103 % of control and the T/C [6] is reported as 101 % of control. The T/C [7] was 98 % of control, the T/C [8] was 96 % of control and the T/C [9] was 103 % of control.

With `COc1ccc(C(=O)N/N=C/c2ccccc2OC)cc1` the T/C [16] was 92 % of control, the T/C [17] was 100 % of control and the T/C [18] was 96 % of control.

For `Cn1c(=O)c2[nH]c(CCCc3nc4c([nH]3)c(=O)n(C)c(=O)n4C)nc2n(C)c1=O`, the T/C (dose: 25.0 mg/kg/injection, schedule: Q01DX001 (ip), vehicle: carboxymethylcellulose (CMC)) was 93 % of control, the T/C [1] was 105 % of control and the T/C [2] was 98 % of control. The T/C [3] was 101 % of control.

In the case of `O=C(Nc1ccc(F)c([N+](=O)[O-])c1)c1ccc2c(c1)C(=O)OC2=O`, the T/C (dose: 100.0 mg/kg/injection, schedule: Q01DX001 (ip), vehicle: saline) is reported as 99 % of control, the T/C [22] is reported as 102 % of control and 92 % of control and the T/C (dose: 100.0 mg/kg/injection, schedule: Q04DX002 (ip), vehicle: saline) is reported as 104 % of control and 109 % of control. For the same compound, the T/C [19] was 106 % of control, the T/C (dose: 200.0 mg/kg/injection, schedule: Q01DX001 (ip), vehicle: saline) was 99 % of control and the T/C [23] was 100 % of control and 92 % of control. For the same compound, the T/C (dose: 200.0 mg/kg/injection, schedule: Q04DX002 (ip), vehicle: saline) was 96 % of control and 104 % of control, the T/C [20] was 111 % of control and the T/C (dose: 400.0 mg/kg/injection, schedule: Q01DX001 (ip), vehicle: saline) was 104 % of control. For the same compound, the T/C [24] was 105 % of control and 92 % of control, the T/C (dose: 400.0 mg/kg/injection, schedule: Q04DX002 (ip), vehicle: saline) was 96 % of control and 104 % of control and the T/C [21] was 103 % of control.

For `CCO/C(C)=N/c1n[n+]([O-])ccc1C`, the T/C (dose: 40.0 mg/kg/injection, schedule: Q04DX002 (ip), vehicle: saline) was 104 % of control, the T/C (dose: 80.0 mg/kg/injection, schedule: Q04DX002 (ip), vehicle: saline) was 96 % of control and the T/C (dose: 160.0 mg/kg/injection, schedule: Q04DX002 (ip), vehicle: saline) was 104 % of control.

With `CCOC(=O)c1cnc(SC)nc1NCc1ccco1` the T/C [10] was 95 % of control, the T/C [11] was 100 % of control and the T/C [12] was 97 % of control. The T/C [13] was 97 % of control, the T/C [14] was 106 % of control and the T/C [15] was 92 % of control.

For `CC(C)C1=CC23CCC4C(C)(C(=O)O)CCCC4(C)C2CC1OO3` (stereo not given), the T/C [10] was 100 % of control, the T/C [12] was 97 % of control and the T/C [14] was 97 % of control.

`Cc1cnc2no[n+]([O-])c2c1` was tested, and the T/C [5] was 101 % of control and the T/C [7] was 102 % of control.
